Results: PMC2481421, “Gene expression response in target organ and whole blood varies as a function of target organ injury phenotype” (Genome Biology, 2008)
Values joined by “and” are separate entries in the source; they are usually repeats but may differ in a detail not shown here. Identical values can stand only once. “Also recorded” adds a separate entry of the source.

Legend:
[1] = In-life observations: body weight, gross findings before and at necropsy; format: in vivo, Male Fischer 344/N rats; details: individual animals
Procedure: Doses were determined with pilot experiments. […] Serum was collected for clinical chemistry.

[2] = test system: liver; assay: Liver histopathology (H&E sections of left liver lobe, severity graded) after a single dose; details: for Primary site of livery injury: rat, single administration
Procedure: The animals were acclimated for 14 days and observed for absence of disease.
Doses were determined with pilot experiments. For each chemical, doses that elicited a sub-toxic ('low'), a moderately toxic ('medium') or a overtly toxic ('high') response 24 hours after treatment were selected. […] For each compound, control animal groups were treated with vehicle alone. All animals were fasted for 12-18 hours prior to exposure. Groups of four to six animals were dosed between 8:30 and 9:30 a.m.; thereafter, feed was provided ad libitum. After 6, 24 or 48 hours of treatment, animals were anesthetized by isoflurane anesthesia. Whole blood was collected via retro-orbital plexus for hematology and gene expression analysis. Serum was collected for clinical chemistry. The animals were euthanized while under anesthesia by cervical dislocation and necropsied within 4 minutes of sacrifice. The left liver lobe was promptly removed and two defined cross sections were placed in 10% neutral buffered formalin for subsequent histopathology.
The cross sections that were fixed by immersion in 10% neutral buffered formalin (see 'In-life studies' section above) were transferred to histology grade alcohol for 18-24 hours after necropsy. Tissues were then processed, embedded in paraffin, sectioned at 5 microns, and stained with hematoxylin and eosin. A pathologist completed the initial microscopic evaluation of each liver sample for a given compound. […] An independent pathology quality assessment review was performed by a second pathologist on the initial histopathological findings.

[3] = 15 mg/kg, gavage, corn oil, 6 hours
[4] = 15 mg/kg, gavage, corn oil, 24 hours, listed as 1, 4-Dichlorobenzene
[5] = 15 mg/kg, gavage, corn oil, 48 hours
[6] = 150 mg/kg, gavage, corn oil, 6 hours
[7] = 150 mg/kg, gavage, corn oil, 24 hours, listed as 1, 4-Dichlorobenzene
[8] = 150 mg/kg, gavage, corn oil, 48 hours
[9] = 1500 mg/kg, gavage, corn oil, 24 hours, listed as 1, 4-Dichlorobenzene
[10] = 1500 mg/kg, gavage, corn oil, 48 hours
[11] = 25 mg/kg, gavage, corn oil, 6 hours
[12] = 25 mg/kg, gavage, corn oil, 24 hours
[13] = 25 mg/kg, gavage, corn oil, 48 hours
[14] = 75 mg/kg, Gavage, Corn Oil, 48 hours
[15] = 75 mg/kg, gavage, corn oil, 6 hours
[16] = 75 mg/kg, gavage, corn oil, 24 hours
[17] = 250 mg/kg, Gavage, Corn Oil, 48 hours
[18] = 250 mg/kg, gavage, corn oil, 6 hours
[19] = 250 mg/kg, gavage, corn oil, 24 hours
[20] = medium dose, 6 hour, six animals

In the case of `Clc1ccc(Cl)cc1` [1,4-Dichlorobenzene], the “Clin/Ob Prior to Necropsy” value [1, 3] is reported as “Normal”, the “Gross Findings” value [1, 3] is reported as “No Gross Findings” and the “Clin/Ob Prior to Necropsy” value ([1]; 15 mg/kg, gavage, corn oil, 24 hours) is reported as “Normal”. The “Final Body Wt.” value [1, 4] was 232.30 g and 225.40 g and 254.10 g and 277.50 g, the “Gross Findings” value [1, 4] was “Liver median lobe with dark area 3x5 mm; also recorded: No Gross Findings” and the “Clin/Ob Prior to Necropsy” value [1, 5] was “Normal”. For the same compound, the “Gross Findings” value [1, 5] was “No Gross Findings”, the “Final Body Wt.” value ([1]; 15 mg/kg, gavage, corn oil, 48 hours, listed as 1, 4-Dichlorobenzene) was 239.30 g and 240.50 g and 258.30 g and 262.70 g and the “Clin/Ob Prior to Necropsy” value [1, 6] was “Normal”. For the same compound, the “Gross Findings” value [1, 6] was “No Gross Findings”, the “Clin/Ob Prior to Necropsy” value ([1]; 150 mg/kg, gavage, corn oil, 24 hours) was “Normal” and the “Final Body Wt.” value [1, 7] was 243.60 g and 238.40 g and 164.30 g and 262.50 g. The “Gross Findings” value [1, 7] was “Liver median lobe mottled; Bladder calculi; also recorded: No Gross Findings”, the “Clin/Ob Prior to Necropsy” value [1, 8] was “Normal” and the “Gross Findings” value [1, 8] was “No Gross Findings”. The “Final Body Wt.” value ([1]; 150 mg/kg, gavage, corn oil, 48 hours, listed as 1, 4-Dichlorobenzene) was 234.10 g and 237.30 g and 264.20 g and 251.10 g, the “Clin/Ob Prior to Necropsy” value ([1]; 1500 mg/kg, gavage, corn oil, 6 hours) was “Normal” and the “Gross Findings” value ([1]; 1500 mg/kg, gavage, corn oil, 6 hours, listed as 1, 4-Dichlorobenzene) was “Liver left and median lobes mottled; also recorded: No Gross Findings”. The “Clin/Ob Prior to Necropsy” value ([1]; 1500 mg/kg, gavage, corn oil, 24 hours) was “Normal”, the “Final Body Wt.” value [1, 9] was 242.10 g and 248.00 g and 261.40 g and 259.70 g and the “Gross Findings” value [1, 9] was “No Gross Findings; also recorded: Liver median lobe mottled on dorsal side”. The “Clin/Ob Prior to Necropsy” value [1, 10] was “Normal”, the “Gross Findings” value [1, 10] was “No Gross Findings” and the “Final Body Wt.” value ([1]; 1500 mg/kg, gavage, corn oil, 48 hours, listed as 1, 4-Dichlorobenzene) was 237.50 g and 238.20 g and 259.90 g and 253.70 g.
In the case of `Brc1ccccc1` [Bromobenzene], the “Clin/Ob Prior to Necropsy” value [1, 11] is reported as “Normal”, the “Gross Findings” value [1, 11] is reported as “No Gross Findings” and the “Clin/Ob Prior to Necropsy” value [1, 12] is reported as “Normal”. For the same compound, the “Final Body Wt.” value [1, 12] was 249.50 g and 261.40 g and 229.00 g and 231.60 g, the “Gross Findings” value [1, 12] was “No Gross Findings” and the “Clin/Ob Prior to Necropsy” value [1, 13] was “Normal”. For the same compound, the “Final Body Wt.” value [1, 13] was 244.40 g and 235.00 g and 246.60 g and 231.60 g, the “Gross Findings” value [1, 13] was “No Gross Findings” and the “Clin/Ob Prior to Necropsy” value [1, 14] was “Normal”. For the same compound, the “Final Body Wt.” value [1, 14] was 236.60 g and 225.70 g and 236.40 g and 237.30 g, the “Gross Findings” value [1, 14] was “No Gross Findings” and the “Clin/Ob Prior to Necropsy” value [1, 15] was “Normal”. For the same compound, the “Gross Findings” value [1, 15] was “No Gross Findings; also recorded: Liver left lobe mottled”, the “Clin/Ob Prior to Necropsy” value [1, 16] was “Normal” and the “Final Body Wt.” value [1, 16] was 242.50 g and 258.00 g and 249.00 g and 228.00 g. The “Gross Findings” value [1, 16] was “No Gross Findings”, the “Clin/Ob Prior to Necropsy” value [1, 17] was “Normal” and the “Final Body Wt.” value [1, 17] was 203.70 g and 220.50 g and 212.60 g and 210.30 g. The “Gross Findings” value [1, 17] was “Liver left lobe firm with mottled edges, median lobe firm with mottled edges; also recorded: Liver left lobe mild roughening of surface, median lobe mild roughening of surface”, the “Clin/Ob Prior to Necropsy” value [1, 18] was “Normal” and the “Gross Findings” value [1, 18] was “No Gross Findings; also recorded: Liver left lobe and median lobe mottled”. The “Clin/Ob Prior to Necropsy” value [1, 19] was “Ungroomed Appearance”, the “Final Body Wt.” value [1, 19] was 214.60 g and 204.50 g and 218.70 g and 200.70 g and the “Gross Findings” value [1, 19] was “Liver left lobe dark, mottled, and firm (anterior end darker), median lobe dark, mottled, and firm; also recorded: Liver left lobe mottled with dark edges, median lobe dark and mottled (left side darker)”. The “Primary site of livery injury” value [2] was “Centrilobular”.
With `c1cc[n+]2c(c1)-c1cccc[n+]1CC2` [Diquat Dibromide] the “Clin/Ob Prior to Necropsy” value ([1]; 5 mg/kg, I.P., PBS, 6 hours) was “normal”, the “Gross Findings” value ([1]; 5 mg/kg, I.P., PBS, 6 hours) was “No Gross Findings; also recorded: Liver: median lobe dark area ventral surface 3x5mm; also recorded: Liver: left lobe accentuated centrilobular pattern” and the “Clin/Ob Prior to Necropsy” value ([1]; 5 mg/kg, I.P., PBS, 24 hours) was “normal”. The “Final Body Wt.” value ([1]; 5 mg/kg, I.P., PBS, 24 hours) was 211.10 g and 208.50 g and 245.30 g and 233.00 g and 258.10 g and 250.90 g, the “Gross Findings” value ([1]; 5 mg/kg, I.P., PBS, 24 hours) was “No Gross Findings; also recorded: Liver: median lobe HDN; also recorded: Liver: left lobe mottled, median lobe mottled” and the “Clin/Ob Prior to Necropsy” value ([1]; 5 mg/kg, I.P., PBS, 48 hours) was “normal; also recorded: Piloerection”. For the same compound, the “Final Body Wt.” value ([1]; 5 mg/kg, I.P., PBS, 48 hours) was 224.20 g and 218.20 g and 231.10 g and 225.90 g and 257.30 g and 249.20 g, the “Gross Findings” value ([1]; 5 mg/kg, I.P., PBS, 48 hours) was “No Gross Findings; also recorded: Liver: left lobe mottled, median lobe mottled” and the “Clin/Ob Prior to Necropsy” value ([1]; 10 mg/kg, I.P., PBS, 6 hours) was “normal”. For the same compound, the “Gross Findings” value ([1]; 10 mg/kg, I.P., PBS, 6 hours) was “Liver: left lobe mottled, median lobe pale patcity area 3x5mm; also recorded: Liver: left lobe dark focus 1x1mm, median lobe mottled; also recorded: No Gross Findings”, the “Clin/Ob Prior to Necropsy” value ([1]; 10 mg/kg, I.P., PBS, 24 hours) was “normal” and the “Final Body Wt.” value ([1]; 10 mg/kg, I.P., PBS, 24 hours) was 206.10 g and 210.20 g and 242.10 g and 224.30 g and 236.70 g and 244.40 g. The “Gross Findings” value ([1]; 10 mg/kg, I.P., PBS, 24 hours) was “No Gross Findings; also recorded: Liver: left lobe mottled, median lobe mottled; also recorded: Liver: median lobe dorsal surface mottled; also recorded: Liver: median lobe HDN”, the “Clin/Ob Prior to Necropsy” value ([1]; 10 mg/kg, I.P., PBS, 48 hours) was “normal” and the “Final Body Wt.” value ([1]; 10 mg/kg, I.P., PBS, 48 hours) was 220.20 g and 230.20 g and 218.20 g and 217.30 g and 243.20 g and 249.30 g. The “Gross Findings” value ([1]; 10 mg/kg, I.P., PBS, 48 hours) was “No Gross Findings; also recorded: Liver: left lobe small, median lobe small; also recorded: Liver: left lobe mottled, median lobe mottled”, the “Clin/Ob Prior to Necropsy” value ([1]; 20 mg/kg, I.P., PBS, 6 hours) was “normal” and the “Gross Findings” value ([1]; 20 mg/kg, I.P., PBS, 6 hours) was “Liver: left lobe mottled dark edge, median lobe mottled; also recorded: No Gross Findings”. The “Clin/Ob Prior to Necropsy” value ([1]; 20 mg/kg, I.P., PBS, 24 hours) was “normal; also recorded: Piloerection”, the “Final Body Wt.” value ([1]; 20 mg/kg, I.P., PBS, 24 hours) was 207.30 g and 222.70 g and 236.30 g and 245.70 g and 242.80 g and 235.30 g and the “Gross Findings” value ([1]; 20 mg/kg, I.P., PBS, 24 hours) was “Liver: left lobe mottled/pale, median lobe mottled/pale; also recorded: No Gross Findings; also recorded: Liver: median lobe dorsal surface mottled; also recorded: Liver: left lobe mottled/pale/slightly enlarged, median lobe mottled/pale/ slightly enlarged”. The “Clin/Ob Prior to Necropsy” value ([1]; 20 mg/kg, I.P., PBS, 48 hours) was “normal; also recorded: Piloerection”, the “Final Body Wt.” value ([1]; 20 mg/kg, I.P., PBS, 48 hours) was 227.20 g and 217.30 g and 211.20 g and 231.70 g and 252.00 g and 265.20 g and the “Gross Findings” value ([1]; 20 mg/kg, I.P., PBS, 48 hours) was “No Gross Findings; also recorded: Liver: left lobe mottled/pale, median lobe pale; also recorded: Liver: left lobe mottled/pale, median lobe mottled/pale”. For the same compound, the “Clin/Ob Prior to Necropsy” value ([1]; 25 mg/kg, I.P., PBS, 6 hours) was “normal; also recorded: Piloerection; also recorded: Comatose”, the “Gross Findings” value ([1]; 25 mg/kg, I.P., PBS, 6 hours) was “No Gross Findings; also recorded: Liver: left lobe mottled dark, median lobe mottled dark” and the “Clin/Ob Prior to Necropsy” value ([1]; 25 mg/kg, I.P., PBS, 24 hours) was “Piloerection; also recorded: normal; also recorded: Ungroomed Appearance”. For the same compound, the “Final Body Wt.” value ([1]; 25 mg/kg, I.P., PBS, 24 hours) was 240.50 g and 211.50 g and 223.20 g and 243.30 g and 234.60 g and 233.90 g, the “Gross Findings” value ([1]; 25 mg/kg, I.P., PBS, 24 hours) was “No Gross Findings; also recorded: Liver: left lobe pale, one focal tan area on dorsal side 3x3mm, tan focal area on ventral side 7x5mm; median lobe pale and mottled; also recorded: Liver: left lobe dark edge; also recorded: Liver: left lobe mottled/pale/ rough surface minimal, median lobe mottled/pale/ rough surface minimal” and the “Clin/Ob Prior to Necropsy” value ([1]; 25 mg/kg, I.P., PBS, 48 hours) was “normal; also recorded: Ungroomed Appearance; also recorded: Piloerection”. For the same compound, the “Final Body Wt.” value ([1]; 25 mg/kg, I.P., PBS, 48 hours) was 205.20 g and 208.20 g and 226.90 g and 212.10 g and 236.10 g and 244.10 g and the “Gross Findings” value ([1]; 25 mg/kg, I.P., PBS, 48 hours) was “Liver: left lobe pale/small, median lobe pale/small; also recorded: Liver: left lobe pale/mottled/ rough surface slight, median lobe pale/mottled/ rough surface slight”.
In the case of `c1cc[n+]2c(c1)-c1cccc[n+]1CC2` [Diquat], the “extent of hepatocellular necrosis, amount of inflammatory cell infiltrates and/or indications of hepatocellular repair (mitosis) across animals” value ([2]; high dose, 48 hour) is reported as “variability”, the “animals with minimal levels of hepatocellular necrosis” value [2, 20] is reported as “one” and the “animals with no apparent histopathological observations” value [2, 20] is reported as “Three of the six”. The “animals with noted levels of glycogen depletion” value [2, 20] was “two” and the “Primary site of livery injury” value [2] was “Mid-zonal to centrilobular”.
